Assay results reported in patent US20150056702A1, “METHOD AND KIT FOR CULTURING STEM CELLS” (China Medical University, priority 2013, published 2015).

Columns and labels:
iPS cells = assay: AP staining and immunofluorescence staining of the generated iPS cells; format: cell-based, mouse; settings: experimental group (T+P), BP10 medium
Method: The AP activity of the obtained iPS cells was determined by AP staining. The expression levels of Nanog and SSEA1 as well as the embryoid body formation and differentiation were observed by immunofluorescence staining.

ES cells = assay: Embryoid body formation and differentiation of ES cells; format: cell-based, mouse; settings: BP10 medium, ES cells passaged 3 times, Tuj1, α-SMA, Gata4 staining
Method: The embryoid body formation and differentiation were also observed by immunofluorescence staining to observe the effect of BP on maintaining the pluripotency of ES cells.
An experimental group medium (BP10) was used to culture ES cells with an initial density of 1×10^4 per well in a 6-well culture dish. The ES cells were passaged 3 times and incubated for another 2 to 3 days in the Ultra Low Cluster Plate (Costar) containing the embryoid body formation medium [DMEM+20% FBS+β-mercaptoethanol (1 mM)+1% L-glutamine+1% NEAA], and then the embryoid body formation was observed. The embryoid bodies were placed into another 24-well culture dish (5 to 6 embryoid bodies/well) and incubated for another 3 days. Next, immunofluorescence staining was conducted to detect cells with an anti-Tuj1 antibody (ectoderm marker), an anti-α-SMA antibody (mesoderm marker) and an anti-Gata4 antibody (endoderm marker).

**Q.** Which results are given for CCCC=C1OC(=O)c2ccccc21 [BP, n-butylidenephthalide]?
**A.** expression levels of AP, Nanog and SSEA1 in the obtained iPS cells (iPS cells): higher expression levels of AP, Nanog, and SSEA1; embryoid body formation and differentiation (ES cells): form an embryoid body and further differentiate into all three germ layer cells
